The results in this text go back to PubChem BioAssay (NCI).

Some test systems named below: CAKI-1 renal; COLO 205 colon; HOP-62 NSCLC; HT29 colon; OVCAR-4 ovarian; OVCAR-5 ovarian; SF-295 CNS; TK-10 renal; U251 CNS; T-47D breast.
Assay in all cases: DTP human tumour cell line panel, 48 h

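Protocol summary: plate cells (96-well), add compound at 5 concentrations, incubate 48 h, interpolate endpoints linearly. Abbreviation: GI50, concentration required for 50% inhibition of growth. TGI is the concentration that stops growth completely.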 Where only a bound is given, the exact number is not on record here.

`C[C@]12CCC[C@H](O)[C@H]1C[C@H](CO)CC2`: the total growth inhibition concentration (TGI) in the assay on CAKI-1 renal, with COLO 205 colon, in the assay with HOP-62 NSCLC, in the assay on HT29 colon, in the assay with OVCAR-4 ovarian and in the assay on OVCAR-5 ovarian was above 100 µM in each case. Further, the TGI in the assay on SF-295 CNS, in the assay with TK-10 renal and with U251 CNS was above 100 µM each time.

For `CC(=O)[CH-]C(=O)c1ccccc1.CC(=O)[CH-]C(=O)c1ccccc1.CC[C@H](/C=C/C(C)[C@H]1CCC2[C@@H]3CC=C4C[C@@H]([O-])CC[C@]4(C)C3CC[C@@]21C)C(C)C.CC[O-].[Ti+4]` (stereo partly drawn), the GI50 in the assay on CAKI-1 renal, in the assay on COLO 205 colon, in the assay on HOP-62 NSCLC, in the assay on HT29 colon, in the assay with OVCAR-4 ovarian and in the assay on OVCAR-5 ovarian was above 100 µM in each case. Moreover, the GI50 in the assay with SF-295 CNS, with TK-10 renal and with U251 CNS was above 100 µM throughout. For the same compound, the TGI with CAKI-1 renal, with COLO 205 colon, with HOP-62 NSCLC, with HT29 colon, with OVCAR-4 ovarian and in the assay with OVCAR-5 ovarian was above 100 µM in each case. Besides, the TGI with SF-295 CNS, in the assay on TK-10 renal and in the assay with U251 CNS was above 100 µM each time.

Turning to `C/C(=N\NS(=O)(=O)c1ccc(C)cc1)c1cc2ccccc2n1C`, the TGI in the assay on COLO 205 colon, in the assay on HOP-62 NSCLC, in the assay on HT29 colon, in the assay on OVCAR-4 ovarian, in the assay with SF-295 CNS and in the assay on U251 CNS was above 100 µM throughout.

Consider `NC1=NN(c2ccccc2)C(=O)C1/C(=N\NC(=O)c1cc2ccccc2cc1O)C(=O)Nc1cccc(C(F)(F)F)c1` (stereo not drawn), for which the TGI is above 100 µM with COLO 205 colon; above 100 µM with HOP-62 NSCLC; above 100 µM in the assay on HT29 colon; above 100 µM with OVCAR-4 ovarian; 68.4 µM in the assay with OVCAR-5 ovarian; above 100 µM with SF-295 CNS. The TGI in the assay with TK-10 renal and with U251 CNS was above 100 µM throughout.

Regarding `O=C(/C=C/c1ccccc1Cl)c1cccc2ccccc12`, the TGI in the assay with CAKI-1 renal turned out to be 25.4 µM; with COLO 205 colon, 33.3 µM; in the assay with HOP-62 NSCLC it was 28.9 µM; in the assay with HT29 colon it was 23.6 µM; with OVCAR-4 ovarian, 16.6 µM; in the assay on OVCAR-5 ovarian it was 26.7 µM. The TGI in the assay with SF-295 CNS was 25.4 µM; in the assay on TK-10 renal, 29.2 µM; in the assay with U251 CNS it was 8.45 µM.

Regarding `COc1ccc(-c2nc(Nc3ccc(-c4nc5ccccc5[nH]4)cc3)nc(N3CCOCC3)n2)cc1`, the GI50 in the assay with CAKI-1 renal is 1.98 µM; with COLO 205 colon it was 1.92 µM; with HOP-62 NSCLC, 2.11 µM; in the assay with HT29 colon, 2.23 µM; in the assay on OVCAR-4 ovarian it was 3.13 µM; with OVCAR-5 ovarian, 2.7 µM. The figures for the GI50 with SF-295 CNS, with TK-10 renal and in the assay with U251 CNS were 1.59 µM, 2.91 µM and 2.04 µM, respectively. Besides, the TGI in the assay on CAKI-1 renal is 5.02 µM; in the assay on COLO 205 colon, 4.21 µM; in the assay on HOP-62 NSCLC it was 5.3 µM; with HT29 colon, 5.39 µM; in the assay with OVCAR-4 ovarian, 13 µM; with OVCAR-5 ovarian it was 8.9 µM. Besides, the TGI in the assay on SF-295 CNS turned out to be 4.7 µM; in the assay on TK-10 renal, 8.54 µM; in the assay on U251 CNS, 13.6 µM.

Regarding `COC(=O)C1=CC2CC1C(S(=O)(=O)c1ccccc1)C2S(=O)(=O)c1ccccc1` (stereo not drawn), the concentration for total growth inhibition (TGI) with CAKI-1 renal is 20.8 µM; in the assay on COLO 205 colon it was 22 µM; in the assay on HOP-62 NSCLC, above 100 µM; in the assay with HT29 colon, 28.9 µM; in the assay with OVCAR-4 ovarian it was 39.9 µM; with OVCAR-5 ovarian, 28.3 µM. Further, the results for the TGI in the assay on SF-295 CNS, in the assay on TK-10 renal and with U251 CNS were 53.8 µM, 24.7 µM and 35.8 µM, respectively.

For the compound `NC(=O)c1ncn(CCN2CCN(C(=O)NCCCCCCNC(=O)N3CCN(CCn4cnc(C(N)=O)c4N)CC3)CC2)c1N`, the total growth inhibition concentration (TGI) in the assay with CAKI-1 renal, in the assay with COLO 205 colon, with HOP-62 NSCLC, with HT29 colon, in the assay on OVCAR-4 ovarian and with OVCAR-5 ovarian was above 100 µM in each case. Also, the TGI in the assay with SF-295 CNS, in the assay with TK-10 renal and in the assay with U251 CNS was above 100 µM in each case.

`COc1ccc2c(c1)[n+]([O-])c(-c1ccc(Br)cc1)c(N)[n+]2[O-]`: the TGI in the assay with CAKI-1 renal was above 100 µM; in the assay on COLO 205 colon, 32.9 µM; with HOP-62 NSCLC it was above 100 µM; with HT29 colon, above 100 µM; in the assay with OVCAR-4 ovarian, above 100 µM; in the assay with OVCAR-5 ovarian it was above 100 µM. For the same compound, the TGI in the assay on SF-295 CNS and with U251 CNS was above 100 µM throughout.

For the compound `Cn1cc(-c2csc(-c3cn(CCCCN4CCCCC4)c4ccc(F)cc34)n2)c2cccnc21`, the GI50 with HOP-62 NSCLC is 14 µM; in the assay with HT29 colon, 1.7 µM; in the assay on OVCAR-4 ovarian, 1.59 µM; in the assay on OVCAR-5 ovarian, 2.86 µM; in the assay on SF-295 CNS, 1.63 µM; in the assay with T-47D breast, 15.7 µM. Besides, the GI50 with TK-10 renal is 1.58 µM. Also, the TGI in the assay with HOP-62 NSCLC is 31.1 µM; with HT29 colon it was 3.16 µM; with OVCAR-4 ovarian, 2.94 µM; with OVCAR-5 ovarian, 11.3 µM; with SF-295 CNS, 3.05 µM; with T-47D breast, 41.4 µM. The same compound showed a TGI in the assay with TK-10 renal of 2.92 µM.

Take `CC1=NN2C(c3ccc(C)cc3)=CSC2=NC(C)(C)C1`: the TGI with COLO 205 colon, with HOP-62 NSCLC, in the assay with HT29 colon, with OVCAR-4 ovarian, in the assay on OVCAR-5 ovarian and in the assay on SF-295 CNS was above 100 µM in each case. Moreover, the TGI in the assay on TK-10 renal and in the assay on U251 CNS was above 100 µM each time.

Take `O=C(CC1(O)C(=O)Nc2ccccc21)c1ccc(F)cc1` (stereo not drawn): the TGI with CAKI-1 renal, in the assay on COLO 205 colon, with HT29 colon, in the assay on OVCAR-4 ovarian, in the assay with OVCAR-5 ovarian and in the assay with SF-295 CNS was above 100 µM each time. The same compound yielded a TGI in the assay on TK-10 renal above 100 µM.

In general, TGI refers to the concentration giving total growth inhibition. High values mean less potent growth arrest, low ones more potent growth arrest. In general, GI50 refers to the concentration that inhibits growth by half.
